Read-outs that look alike come from different tables or passages of the source.
Assays:
[1] = target: T1, HDAC11 (Homo sapiens, UniProt Q96DB2); test: HDAC11 fluorimetric enzyme activity assay (Boc-Lys(TFA)-AMC), dose-response; type: biochemical
T1 construct: His6 (N); SUMO (N); made in house; host or cells: E. coli BL21 (DE3)
T1 sequence (Q96DB2 1-347): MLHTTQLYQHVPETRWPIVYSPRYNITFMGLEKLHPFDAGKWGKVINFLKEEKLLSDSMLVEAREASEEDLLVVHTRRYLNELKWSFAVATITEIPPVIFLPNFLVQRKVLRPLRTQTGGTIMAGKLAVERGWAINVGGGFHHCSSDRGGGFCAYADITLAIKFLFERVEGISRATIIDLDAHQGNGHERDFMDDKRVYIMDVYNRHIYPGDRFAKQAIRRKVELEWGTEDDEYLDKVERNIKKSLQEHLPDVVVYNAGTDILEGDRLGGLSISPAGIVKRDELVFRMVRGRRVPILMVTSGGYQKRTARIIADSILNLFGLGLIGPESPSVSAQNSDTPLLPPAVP

[2] = target: HDAC1 (Homo sapiens, UniProt Q13547); test: Isoenzyme selectivity, HDAC1 dose-response; type: biochemical; conditions: means ± standard deviation (n = 3)
[3] = target: T2, HDAC6 (Homo sapiens, UniProt Q9UBN7); test: Isoenzyme selectivity, HDAC6 dose-response; type: biochemical; conditions: means ± standard deviation (n = 3)
T2 sequence (Q9UBN7 1-1215): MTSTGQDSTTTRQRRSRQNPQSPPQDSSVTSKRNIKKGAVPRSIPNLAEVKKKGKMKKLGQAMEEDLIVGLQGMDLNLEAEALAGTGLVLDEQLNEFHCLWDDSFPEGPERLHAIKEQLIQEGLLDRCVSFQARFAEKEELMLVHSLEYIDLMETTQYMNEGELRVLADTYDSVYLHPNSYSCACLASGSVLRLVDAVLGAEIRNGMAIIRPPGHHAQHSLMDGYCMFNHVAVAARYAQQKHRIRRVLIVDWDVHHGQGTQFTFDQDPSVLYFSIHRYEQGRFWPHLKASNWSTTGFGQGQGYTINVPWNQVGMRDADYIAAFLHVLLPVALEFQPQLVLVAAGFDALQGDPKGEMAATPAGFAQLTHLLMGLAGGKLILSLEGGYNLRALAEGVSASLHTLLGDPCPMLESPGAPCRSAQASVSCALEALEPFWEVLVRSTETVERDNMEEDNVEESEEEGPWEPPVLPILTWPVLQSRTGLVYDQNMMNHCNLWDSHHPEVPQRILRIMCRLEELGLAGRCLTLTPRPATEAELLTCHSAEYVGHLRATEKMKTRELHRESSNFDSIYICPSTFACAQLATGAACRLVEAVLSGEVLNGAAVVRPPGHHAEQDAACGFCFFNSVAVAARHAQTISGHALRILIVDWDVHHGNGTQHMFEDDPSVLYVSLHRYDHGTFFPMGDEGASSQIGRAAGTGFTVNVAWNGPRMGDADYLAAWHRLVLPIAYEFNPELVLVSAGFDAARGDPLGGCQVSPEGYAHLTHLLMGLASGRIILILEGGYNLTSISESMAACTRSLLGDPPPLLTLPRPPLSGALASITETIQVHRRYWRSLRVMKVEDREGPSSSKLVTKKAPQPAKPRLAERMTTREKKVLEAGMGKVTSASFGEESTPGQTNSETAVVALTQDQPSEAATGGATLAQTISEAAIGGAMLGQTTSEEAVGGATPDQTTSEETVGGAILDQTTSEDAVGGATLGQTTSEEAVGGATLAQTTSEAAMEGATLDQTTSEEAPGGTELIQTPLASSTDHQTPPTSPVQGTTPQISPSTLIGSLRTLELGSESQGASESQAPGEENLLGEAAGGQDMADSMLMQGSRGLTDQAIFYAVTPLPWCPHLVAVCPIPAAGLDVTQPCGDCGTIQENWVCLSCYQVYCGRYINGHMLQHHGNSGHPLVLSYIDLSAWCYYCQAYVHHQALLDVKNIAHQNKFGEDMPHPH

[4] = target: T1, HDAC11; test: High-throughput screening, residual HDAC11 enzyme activity; type: biochemical; conditions: final compound concentration 10 µM
[5] = target: HDAC4 (Homo sapiens, UniProt P56524); test: Isoenzyme selectivity, HDAC4 dose-response; type: biochemical; conditions: means ± standard deviation (n = 3)
[6] = target: T3, HDAC8 (Homo sapiens, UniProt Q9BY41); test: Isoenzyme selectivity, HDAC8 dose-response; type: biochemical; conditions: means ± standard deviation (n = 3)
T3 sequence (Q9BY41 1-377): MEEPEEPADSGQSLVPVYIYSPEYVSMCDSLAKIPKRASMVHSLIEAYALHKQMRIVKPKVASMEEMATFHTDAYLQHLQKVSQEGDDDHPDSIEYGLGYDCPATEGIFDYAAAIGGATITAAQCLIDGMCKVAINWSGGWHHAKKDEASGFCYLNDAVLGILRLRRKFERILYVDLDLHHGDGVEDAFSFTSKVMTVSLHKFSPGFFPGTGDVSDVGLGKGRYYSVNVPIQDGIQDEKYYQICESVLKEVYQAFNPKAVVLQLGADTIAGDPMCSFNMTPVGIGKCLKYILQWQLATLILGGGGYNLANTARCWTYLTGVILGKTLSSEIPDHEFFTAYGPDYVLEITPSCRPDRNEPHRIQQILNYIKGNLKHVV

[7] = target: T1, HDAC11; test: Time-dependent IC50 / pre-incubation one-step enzyme assay; type: biochemical; conditions: pre-incubation for different times up to 60 min
[8] = Cytotoxicity testing (XTT) against HEK293; type: cell-based; conditions: human, HEK293 cells, HEK293, 100 µM compound concentration, read-out: Cell viability
Experimental: (§1) Figure S10: Cytotoxicity testing of indicated compound against HEK293 cell. 5000 HEK293 cells were seeded in 96-Well plates. After 48h Inkubationszeit at 37°C and 5% CO2 in DMEM supplemented with 10% FBS and 1% Pen/Strep. A serial 1:2 dilution starting with 100 uM of compounds was added and incubated for a further 24h. XTT reagent was added and incubated for 4h. Afterwards the absorbance was measure at 450 nm and 600 nm. Data points are mean values ± standard error, n ≥ 6.
(§2) 9SPC045H03 in the enzyme activity assay is not due to compound-substrate interference. […]

[9] = test system: HEK293 normal cells; test: Cytotoxicity testing (XTT) against HEK293; type: cell-based; conditions: HEK293, up to 100 uM, 24h
Experimental: as §1, §2

[10] = target: T1, HDAC11; test: Rapid dilution experiment (reversibility of binding); type: biochemical; conditions: 10× IC50, 100-fold rapid dilution, recovery of enzyme activity
Experimental: The inhibitors were evaluated for reversible inhibition in an enzyme activity assay. […] After equilibration for 1 h at 30 °C, this solution is diluted 100-fold directly into 80 μM of the substrate Boc-Lys(TFA)-AMC. After a further hour of incubation, the reaction was stopped as indicated in the enzyme activity assay section.

[11] = target: T1, HDAC11; parameters: method as in PMID 31264832; conditions: 50 µM; cited from earlier work
[12] = target: T1, HDAC11; conditions: Figure 1 / text; read-out: HDAC11 IC50 of known inhibitors; cited from earlier work
[13] = means ± standard deviation (n = 3), read-out: IC50 against HDAC11

HDAC1, sequence (Q13547 whole entry, species assumed): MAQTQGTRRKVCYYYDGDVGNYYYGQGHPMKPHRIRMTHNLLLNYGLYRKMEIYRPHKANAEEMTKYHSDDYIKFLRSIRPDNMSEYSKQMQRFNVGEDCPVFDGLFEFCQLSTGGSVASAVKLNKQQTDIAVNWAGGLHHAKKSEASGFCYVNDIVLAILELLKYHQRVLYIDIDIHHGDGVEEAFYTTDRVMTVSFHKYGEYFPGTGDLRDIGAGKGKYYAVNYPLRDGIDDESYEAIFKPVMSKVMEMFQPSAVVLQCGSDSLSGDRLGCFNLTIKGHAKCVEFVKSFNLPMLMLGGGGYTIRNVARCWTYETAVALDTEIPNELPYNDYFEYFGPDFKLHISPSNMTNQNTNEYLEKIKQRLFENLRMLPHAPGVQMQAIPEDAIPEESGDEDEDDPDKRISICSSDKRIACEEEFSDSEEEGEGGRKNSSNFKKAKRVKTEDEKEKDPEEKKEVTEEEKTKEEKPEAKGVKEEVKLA
HDAC4, sequence (P56524 whole entry, species assumed): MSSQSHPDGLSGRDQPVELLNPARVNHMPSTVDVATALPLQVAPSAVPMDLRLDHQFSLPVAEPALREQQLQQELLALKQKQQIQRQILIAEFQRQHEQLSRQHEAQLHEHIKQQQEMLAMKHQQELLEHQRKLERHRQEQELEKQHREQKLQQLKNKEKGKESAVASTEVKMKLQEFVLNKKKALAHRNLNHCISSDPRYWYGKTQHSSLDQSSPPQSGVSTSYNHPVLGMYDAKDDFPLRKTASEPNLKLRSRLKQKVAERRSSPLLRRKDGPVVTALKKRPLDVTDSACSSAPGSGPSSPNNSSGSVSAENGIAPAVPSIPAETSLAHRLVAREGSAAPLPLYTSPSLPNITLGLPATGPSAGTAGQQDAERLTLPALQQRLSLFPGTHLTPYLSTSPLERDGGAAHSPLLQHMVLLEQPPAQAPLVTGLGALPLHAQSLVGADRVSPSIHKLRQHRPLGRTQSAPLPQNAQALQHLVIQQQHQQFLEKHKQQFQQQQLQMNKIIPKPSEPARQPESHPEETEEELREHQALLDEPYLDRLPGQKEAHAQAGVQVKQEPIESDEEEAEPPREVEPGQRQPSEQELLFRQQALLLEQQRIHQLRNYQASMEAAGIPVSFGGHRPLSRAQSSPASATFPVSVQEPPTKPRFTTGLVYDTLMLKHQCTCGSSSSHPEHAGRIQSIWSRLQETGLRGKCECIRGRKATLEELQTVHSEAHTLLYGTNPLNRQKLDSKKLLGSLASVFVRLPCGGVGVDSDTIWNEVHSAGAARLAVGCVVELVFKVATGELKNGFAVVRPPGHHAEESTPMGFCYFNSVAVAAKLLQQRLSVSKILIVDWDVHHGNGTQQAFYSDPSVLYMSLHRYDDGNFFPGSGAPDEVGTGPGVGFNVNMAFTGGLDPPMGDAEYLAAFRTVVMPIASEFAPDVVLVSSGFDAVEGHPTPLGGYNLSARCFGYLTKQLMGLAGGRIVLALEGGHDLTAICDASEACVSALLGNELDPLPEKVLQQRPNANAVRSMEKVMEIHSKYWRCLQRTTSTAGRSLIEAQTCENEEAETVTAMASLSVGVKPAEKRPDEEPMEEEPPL

## O=C1NC(=O)/C(=C/c2ccc(O)nc2)S1 [9HDA018E08]
[1]; [13]
  IC50: 19000 ± 2000 nM

## O=C(NO)c1ccc(CSc2nc3ccccc3c(=O)n2-c2ccccc2)cc1 [9HDA020B04]
[1]; [13]
  IC50: 2100 ± 200 nM

## Cc1ccc(-n2c(SCc3ccc(C(=O)NO)cc3)nc3ccccc3c2=O)cc1 [9HDA020B05]
[1]; [13]
  IC50: 2000 ± 200 nM

## CCc1ccc(-n2c(SCc3ccc(C(=O)NO)cc3)nc3cccc(C)c3c2=O)cc1 [9HDA020B06]
[1]; [13]
  IC50: 1600 ± 200 nM

## O=C(NO)c1ccc(CSc2nc3ccccc3c(=O)n2-c2ccc(Br)cc2)cc1 [9HDA020B07]
[1]; [13]
  IC50: 2600 ± 400 nM

## Cc1ccc(-n2c(SCc3ccc(C(=O)NO)cc3)nc3ccccc3c2=O)c(C)c1 [9HDA020B08]
[1]; [13]
  IC50: 2000 ± 200 nM

## Cc1cccc(-n2c(SCc3ccc(C(=O)NO)cc3)nc3ccccc3c2=O)c1 [9HDA020B09]
[1]; [13]
  IC50: 1600 ± 300 nM

## O=C(NO)c1ccc(CSc2nc3ccccc3c(=O)n2-c2cccc(Cl)c2)cc1 [9HDA020B10]
[1]; [13]
  IC50: 2000 ± 300 nM

## O=C(NO)c1ccc(CSc2nc3ccccc3c(=O)n2-c2ccccc2F)cc1 [9HDA020B11]
[1]; [13]
  IC50: 4100 ± 500 nM

## O=C(NO)c1ccc(CSc2nc3cc(Cl)ccc3c(=O)n2-c2ccccc2F)cc1 [9HDA020C04]
[1]; [13]
  IC50: 2000 ± 500 nM

## Cc1cccc2nc(SCc3ccc(C(=O)NO)cc3)n(-c3ccccc3)c(=O)c12 [9HDA020C06]
[2]
  IC50: 1400 ± 400 nM
[3]
  IC50: 200 ± 100 nM
[4]
  Res. HDAC activity (residual HDAC11 activity): 58%
[1]; [13]
  IC50: 1100 ± 400 nM

## Cc1cccc2nc(SCc3ccc(C(=O)NO)cc3)n(-c3ccccc3F)c(=O)c12 [9HDA020C07]
[1]; [13]
  IC50: 1500 ± 300 nM

## Cc1ccccc1-n1c(SCc2ccc(C(=O)NO)cc2)nc2cccc(C)c2c1=O [9HDA020C08]
[1]; [13]
  IC50: 3500 ± 800 nM

## Cc1cccc2nc(SCc3ccc(C(=O)NO)cc3)n(-c3ccc(Cl)cc3)c(=O)c12 [9HDA020C09]
[5]
  IC50: 900 ± 400 nM
[2]
  IC50: 2300 ± 500 nM
[3]
  IC50: 900 ± 300 nM
[6]
  IC50: 6000 ± 1000 nM
[1]; [13]
  IC50: 1900 ± 400 nM

## O=C(O)/C=C/c1ccc(O)c(O)c1 [9LOP003E09, caffeic acid]
[1]; [13]
  IC50: > 100000 nM

## N#C/C(=C\c1ccc(O)c(O)c1)C(=O)NCCCc1ccccc1 [9LOP015D09, Tyrphostin AG 555]
[4]
  Res. HDAC activity (residual HDAC11 activity): 49%
[1]; [13]
  IC50: 4300 ± 3000 nM

## N#C/C(=C\c1ccc(O)c(O)c1)C(=O)NCc1ccccc1 [9LOP015E07, Tyrphostin AG 490]
[4]
  Res. HDAC activity (residual HDAC11 activity): 65%
[1]
  IC50: 14000 ± 3000 nM

## O=C(CCc1ccccc1)c1c(O)cc(O)cc1O [9SPC036F04]
[1]; [13]
  IC50: > 50000 nM

## Oc1c(C(Nc2cccc(C(F)(F)F)c2)c2ccncc2)ccc2cccnc12 (centres unmarked) [9SPC045H03]
[5]
  IC50: > 70000 nM
[7]
  Time-dependence of HDAC11 inhibition: no time-dependent inhibition
[2]
  IC50: > 70000 nM
[8]
  viability at 24 h, 100 µM: 50%
[9]
  Cytotoxic effect (in words): moderately toxic effect
[3]
  IC50: 67000 nM
[10]
  Reversibility of binding to HDAC11: reversible binding
[6]
  IC50: 13000 ± 5000 nM
[1]; from IC50 values of Table 2
  Selectivity for HDAC11 against HDAC8: about 3 fold
  Selectivity for HDAC11 with respect to HDACs 1, 4, and 6: more than 30 fold
[1]; [13]
  IC50: 2300 ± 500 nM

## O=C(C=Cc1ccc(N=Cc2ccc([N+](=O)[O-])cc2)cc1)OCCc1ccccc1 [9SPC056H05]
[4]
  Res. HDAC activity (residual HDAC11 activity): 97%

## O=C(/C=C/c1ccc(O)c(O)c1)OCCc1ccccc1 [CAPE, caffeic acid phenethyl ester]
[5]
  IC50: 68000 ± 30000 nM
[7]
  Time-dependence of HDAC11 inhibition: no time-dependent inhibition
[2]
  IC50: 22000 ± 5000 nM
[9]
  Cytotoxic effect (in words): did not show cytotoxic effects
[3]
  IC50: > 70000 nM
[10]
  Reversibility of binding to HDAC11: reversible binding
[4]
  Res. HDAC activity (residual HDAC11 activity): 46%
[6]
  IC50: 7000 ± 2000 nM
[1]; [13]
  IC50: 1500 nM

## CCCCCCCCCCCCCCCCNNC(=O)c1cccs1 [SIS17]
[11]
  Degree of myristoylation of the HDAC11 substrate SHMT2 in cells: significantly increased
[12]
  IC50: 850 nM

Source: article PMC12249833, “Discovery and Characterization of Novel Non-Hydroxamate HDAC11 Inhibitors” (International Journal of Molecular Sciences, 2025)
